# Source: US20040224969A1, “Salts of substituted 1,2,3,4-tetrahydroquinoline-2-carboxylic acid compounds” (Gruenenthal GmbH, priority 2001, published 2004)
# How the values were obtained:
# AMPA receptor channels = experiment: AMPA-induced ionic fluxes on RNA-injected Xenopus oocytes (two-electrode voltage clamp); type: cell-based, rat; details: 10 μmol/l compound, AMPA 100 μmol/l, n = 2
# [1] = test system: formalin-induced nociception; experiment: Formalin test on the rat (second phase); type: in vivo; details: late phase
# Method: The experiments for determining the antinociceptive action of the compounds of formula I according to the invention were performed in the formalin test on male rats (Sprague-Dawley, 150-170 g).
# In the formalin test a distinction is made between the first (early) phase (0-15 min after the formalin injection) and the second (late) phase (15-60 min after the formalin injection) (D. Dubuisson, S. G. Dennis, Pain, 4, 161-174 (1977)). The early phase represents a model for acute pain as a direct reaction to the formalin injection, while the late phase is regarded as a model for persistent (chronic) pain (T. J. Coderre, J. Katz, A. L. Vaccarino, R. Melzack, Pain, vol. 52, p. 259, 1993). […]
# A single subcutaneous formalin injection (50 μl, 5%) in the dorsal side of the right back paw of free-moving experimental animals induced a nociceptive reaction which is represented by the following behavioral parameters: lifting and holding of the affected paw (score 1), shaking or twitching (score 2), licking and biting (score 3). The differing modes of behavior triggered by the formalin injection were recorded continuously by observing the animals in the late phase of the formalin test, and differently weighted in an evaluation. Normal behavior, where the animal distributes its weight evenly over all four paws, was recorded as a score of 0. […]
# [2] = molecular target: T1, glycine binding site of the NMDA receptor channel (Rattus norvegicus, UniProt P35439); experiment: Receptor binding (glycine binding site of the NMDA receptor channel), (3H)-MDL 105.519 displacement on brain membrane homogenates; details: for Displacement (%, 10 μmol/l): displacement of (3H)-MDL 105.519 at 10 μmol/l of substance; for Ki: rat cortex/hippocampus membranes, 1 nmol/l (3H)-MDL 105.519, mean of 3 independent experiments
# T1 construct: from tissue; host or cells: rat brain cortex and hippocampus membrane homogenate (male Wistar rats)
# Method: Receptor binding (glycine binding site of the NMDA receptor channel)
# The tests for determining the affinity of the compounds of formula I according to the invention for the glycine binding site of the NMDA receptor channel were carried out on brain membrane homogenates (homogenate of the cortex and hippocampus areas of the brain of male rats, Wistar strain) [B. M. Baron, B. W. Siegel, B. L. Harrison, R. S. Gross, C. Hawes and P. Towers, Journal Of Pharmacology and Experimental Therapeutics, vol. 279, p. 62, 1996].
# For this purpose, the cortex and hippocampus were freed without cutting from freshly removed rat brains, homogenized in 5 mmol/l TRIS acetate buffer, 0.32 mol/l sucrose, pH 7.4 (10 ml/g of fresh weight), using a Potter homogenizer (Braun/Melsungen, 10 piston strokes at 500 rpm), with ice cooling, and then centrifuged for 10 minutes at 1000 g and 4° C. The first supernatant was collected and the sediment was homogenized again with 5 mmol/l TRIS acetate buffer, 0.32 mol/l sucrose, pH 7.4 (5 ml/g of original fresh weight), using the Potter homogenizer (10 piston strokes at 500 rpm), with ice cooling, and centrifuged for 10 minutes at 1000 g and 4° C. The resulting supernatant was combined with the supernatant from the first centrifugation and centrifuged at 17,000 g for 20 minutes at 4° C. The supernatant after this centrifugation was discarded and the membrane sediment was taken up with 5 mmol/l TRIS acetate buffer, pH 8.0 (20 ml/g of original fresh weight), and homogenized with 10 piston strokes at 500 rpm.
# The membrane homogenate was then incubated for 1 hour at 4° C. and centrifuged for 30 minutes at 50,000 g and 4° C. The supernatant was discarded and the centrifuge tube containing the membrane sediment was sealed with Parafilm and frozen for 24 hours at −20° C. On the following day the membrane sediment was thawed, taken up with ice-cold 5 mmol/l TRIS acetate buffer, 0.1% saponin (w/v), pH 7.0 (10 ml/g of original fresh weight), homogenized with 10 piston strokes at 500 rpm and then centrifuged for 20 minutes at 50,000 g and 4° C. The resulting supernatant was discarded and the sediment was taken up in a small volume with 5 mmol/l TRIS acetate buffer, pH 7.0 (approximately 2 ml/g of original fresh weight), and homogenized again with 10 piston strokes at 500 rpm. After determination of the protein content, the membrane homogenate was adjusted to a protein concentration of 10 mg protein/ml with 5 mmol/l TRIS acetate buffer, pH 7.0, and frozen in aliquots until tested.
# For the receptor binding test, aliquots were thawed, diluted to 1:10 with 5 mmol/l TRIS acetate buffer, pH 7.0, homogenized with 10 piston strokes at 500 rpm using the Potter homogenizer (10 piston strokes at 500 rpm), with ice cooling, and centrifuged for 60 minutes at 55,000 g and 4° C. […]
# In the binding test, 50 mmol/l TRIS acetate buffer, pH 7.0, was used as the buffer and 1 nmol/l (^3H)-MDL 105.519 (B. M. Baron et al., 1996) was used as the radioactive ligand. The proportion of non-specific binding was determined in the presence of 1 mmol/l glycine.
# In other preparations the compounds according to the invention were added in concentration series and the displacement of the radioactive ligand from its specific binding to the glycine binding site of the NMDA receptor channel was measured. […]
"Displacement (%, 10 μmol/l) [2] [%]",Ki [2] [nM],Structure (SMILES),AMPA-induced ionic fluxes Inhibition at 10 μmol/l of the compounds according to the invention (AMPA receptor channels),"% inhibition of the formalin-induced nociception ([1]; i.p., 21.5 mg/kg) [%]","% inhibition of the formalin-induced nociception ([1]; i.v., 68.1 mg/kg) [%]"
–,–,"O=C(O)C1Nc2cc(Cl)cc(Cl)c2C2C=CCC12 (centres unmarked) [Example 1, 7,9-Dichloro-3a,4,5,9b-tetrahydro-3H-cyclopenta [c]quinoline-4-carboxylic acid]",5.4% (n = 2),64.5,–
90,350,"O=C([O-])C1Nc2cc(Cl)cc(Cl)c2C2C=CCC12.[Na+] (centres unmarked) [Example 55, 7,9-Dichloro-3a,4,5,9b-tetrahydro-3H-cyclopenta [c]quinoline-4-carboxylate; sodium salt]",–,–,56
100,300,"O=C(O)C1Nc2ccc(Cl)cc2C2C=CCC12 (centres unmarked) [Example 2, 8-Chloro-3a,4,5,9b-tetrahydro-3H-cyclopenta [c]quinoline-4-carboxylic acid]",–,–,–
97,–,"O=C([O-])C1Nc2cc(Cl)cc(Cl)c2C2CCCC12.[Na+] (centres unmarked) [Example 54, 7,9-Dichloro-2,3,3a,4,5,9b-hexahydro-1H-cyclopenta [c]quinoline-4-carboxylate; sodium salt]",–,–,–
